The target of assay [1] is T1, human recombinant adrenergic α1D receptor (Homo sapiens, UniProt P25100).
T1 construct: expressed in transfected cells; host or cells: HEK-293 cells
T1 sequence (P25100 1-572): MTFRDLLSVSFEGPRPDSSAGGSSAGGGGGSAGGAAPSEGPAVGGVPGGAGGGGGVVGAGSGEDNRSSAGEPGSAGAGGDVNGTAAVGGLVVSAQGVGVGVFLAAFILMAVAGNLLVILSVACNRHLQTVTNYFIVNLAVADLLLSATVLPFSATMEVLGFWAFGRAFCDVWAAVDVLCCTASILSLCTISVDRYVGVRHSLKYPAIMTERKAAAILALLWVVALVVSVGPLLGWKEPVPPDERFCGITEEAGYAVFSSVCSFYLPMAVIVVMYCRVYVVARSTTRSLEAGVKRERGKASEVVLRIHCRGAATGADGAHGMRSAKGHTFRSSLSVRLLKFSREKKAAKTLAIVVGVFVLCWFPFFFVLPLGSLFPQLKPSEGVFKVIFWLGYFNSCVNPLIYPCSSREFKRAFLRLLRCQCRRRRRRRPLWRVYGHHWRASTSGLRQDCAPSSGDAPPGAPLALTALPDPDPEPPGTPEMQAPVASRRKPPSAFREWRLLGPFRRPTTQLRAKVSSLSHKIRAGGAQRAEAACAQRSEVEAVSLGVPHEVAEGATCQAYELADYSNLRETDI
As to the kind of experiment: Adrenergic α1D radioligand binding ([3H]Prozosin). As to conditions: compound at 1 μM; HEK-293 cells; read-out: Adrenergic (1 μM) α1D, percent inhibition of specific binding. An outline of the steps: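 Values are percent inhibition of specific [3H]prazosin (0.6 nM) binding, determined by filtration after 60 min at 25° C, pH 7.4 Tris-HCl, on recombinant human α1D receptor in HEK-293 cells. Compounds tested at 1 μM or below in 1% DMSO; 10 μM phentolamine set non-specific binding.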

Assay [2] has as its target T2, human recombinant adrenergic α2B receptor (Homo sapiens, UniProt P18089).
T2 construct: expressed in transfected cells; host or cells: CHO-K1 cells
T2 sequence (P18089 1-450): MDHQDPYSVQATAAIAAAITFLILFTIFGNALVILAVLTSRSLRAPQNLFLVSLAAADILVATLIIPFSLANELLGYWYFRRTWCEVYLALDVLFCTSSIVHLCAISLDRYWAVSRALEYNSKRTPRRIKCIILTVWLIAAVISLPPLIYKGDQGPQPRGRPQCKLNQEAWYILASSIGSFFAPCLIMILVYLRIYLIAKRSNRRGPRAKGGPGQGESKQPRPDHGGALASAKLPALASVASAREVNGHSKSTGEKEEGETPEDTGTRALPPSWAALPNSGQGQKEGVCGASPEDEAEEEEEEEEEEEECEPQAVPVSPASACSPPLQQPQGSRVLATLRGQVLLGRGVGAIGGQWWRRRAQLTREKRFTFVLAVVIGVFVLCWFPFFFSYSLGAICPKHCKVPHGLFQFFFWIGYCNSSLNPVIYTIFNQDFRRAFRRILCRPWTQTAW
As to the kind of experiment: Adrenergic α2B radioligand binding ([3H]Rauwolscine). The settings on record: compound at 1 μM; CHO-K1 cells; read-out: Adrenergic (1 μM) α2B, percent inhibition of specific binding. In a few lines: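 CHO-K1 membranes expressing the receptor were incubated with test compounds (1 μM or lower, 1% DMSO) and 2.5 nM [3H]Rauwolscine for 60 min at 25° C in Tris-HCl pH 7.4 with MgCl2, EDTA and BSA. Bound radioactivity was filtered and counted; nonspecific binding was defined with 10 μM Prazosin, giving percent inhibition of specific binding.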

The target in assay [3] is T3, human recombinant histamine H2 receptor (Homo sapiens, UniProt P25021).
T3 construct: expressed in transfected cells; host or cells: CHO-K1 cells
T3 sequence (P25021 whole entry): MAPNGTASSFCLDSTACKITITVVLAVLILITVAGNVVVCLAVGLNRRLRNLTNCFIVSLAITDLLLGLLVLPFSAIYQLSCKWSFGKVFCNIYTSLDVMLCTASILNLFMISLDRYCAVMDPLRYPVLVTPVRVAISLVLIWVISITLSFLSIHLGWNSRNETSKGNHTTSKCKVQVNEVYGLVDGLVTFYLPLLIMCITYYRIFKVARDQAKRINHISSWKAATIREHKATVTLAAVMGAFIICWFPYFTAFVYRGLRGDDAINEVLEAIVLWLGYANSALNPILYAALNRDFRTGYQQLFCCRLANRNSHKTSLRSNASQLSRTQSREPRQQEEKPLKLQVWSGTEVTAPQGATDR
As to the kind of experiment: Histamine H2 radioligand binding ([125I]aminopotentidine). As to conditions: compound at 1 μM; CHO K1 cells; read-out: Histamine Binding (1 μM) H2, percent inhibition of specific binding. An outline of the steps: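 CHO-K1 membranes expressing the receptor were incubated in 50 mM phosphate buffer pH 7.4 with 0.1 nM [125I]aminopotentidine for 120 minutes at 25° C., with nonspecific binding defined by 3 μM tiotidine. Compounds were tested at 1 μM (1% DMSO); bound radioligand was counted after filtration, values given as percent inhibition of specific binding.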

The term inhibition denotes the relative decrease from the control value, in per cent. For `Cc1ccc2c(c1)c1c(n2CCC(=O)NCc2ccccc2)CCN(C)C1` [Compound 59, N-benzyl-3-(1,2,3,4-tetrahydro-2,8-dimethylpyrido[4,3-b]indol-5-yl)propanamide], the inhibition at 1 µM in assay [1] came to 56%; in assay [2], 96%; in assay [3], 5%.

As for `CN1CCc2c(c3cc(Cl)ccc3n2CC(=O)NC2CCCCC2)C1` [Compound 60, 2-(8-chloro-1,2,3,4-tetrahydro-2-methylpyrido[4,3-b]indol-5-yl)-N-cyclohexylacetamide], the inhibition at 1 µM in assay [1] came out at 22%; in assay [2], 52%; in assay [3] it was 3%.

Turning to `Cc1ccc2c(c1)c1c(n2CCNC(=O)C(C)C)CCN(C)C1` [Compound 61, N-(2-(1,2,3,4-tetrahydro-2,8-dimethylpyrido[4,3-b]indol-5-yl)ethyl)isobutyramide], the inhibition at 1 µM in assay [1] amounted to 28%; in assay [2] it was 70%; in assay [3], 13%.

In the case of `Cc1ccc2c(c1)c1c(n2CCNC(=O)C2CCCCC2)CCN(C)C1` [Compound 62, N-(2-(1,2,3,4-tetrahydro-2,8-dimethylpyrido[4,3-b]indol-5-yl)ethyl)cyclohexanecarboxamide], the values for the inhibition at 1 µM in assay [1], in assay [2] and in assay [3] were 64%, 92% and 39%, respectively.

Consider `Cc1ccc2c(c1)c1c(n2CCNC(=O)c2ccc(F)cc2Cl)CCN(C)C1` [Compound 63, 2-chloro-4-fluoro-N-(2-(1,2,3,4-tetrahydro-2,8-dimethylpyrido[4,3-b]indol-5-yl)ethyl)benzamide], for which the results for the inhibition at 1 µM in assay [1], in assay [2] and in assay [3] were 56%, 98% and 35%, respectively.

For the molecule `Cc1ccc2c(c1)c1c(n2CC(N)=O)CCN(C)C1` [Compound 64, 2-(1,2,3,4-tetrahydro-2,8-dimethylpyrido[4,3-b]indol-5-yl)acetamide], the inhibition at 1 µM in assay [1] was 20%; in assay [2], 40%; in assay [3], -3%.

Consider `Cc1ccc2c(c1)c1c(n2CCNC(=O)C2CCNCC2)CCN(C)C1` [Compound 65, N-(2-(1,2,3,4-tetrahydro-2,8-dimethylpyrido[4,3-b]indol-5-yl)ethyl)piperidine-4-carboxamide], for which the inhibition at 1 µM in assay [1] was 11%; in assay [2], 12%; in assay [3] it was -7%.

Turning to `Cc1ccc2c(c1)c1c(n2CCNC(=O)c2ccc(F)cc2)CCN(C)C1` [Compound 66, 4-fluoro-N-(2-(1,2,3,4-tetrahydro-2,8-dimethylpyrido[4,3-b]indol-5-yl)ethyl)benzamide], the inhibition at 1 µM was determined as 76% in assay [1], 107% in assay [2] and 49% in assay [3].

For the molecule `CN1CCc2c(c3cc(Cl)ccc3n2CCC(N)=O)C1` [Compound 67, 3-(8-chloro-1,2,3,4-tetrahydro-2-methylpyrido[4,3-b]indol-5-yl)propanamide], the figures for the inhibition at 1 µM in assay [1], in assay [2] and in assay [3] were 32%, 72% and -6%, respectively.

As for `Cc1ccc2c(c1)c1c(n2CCNC(=O)C2CCCC2)CCN(C)C1` [Compound 68, N-(2-(1,2,3,4-tetrahydro-2,8-dimethylpyrido[4,3-b]indol-5-yl)ethyl)cyclopentanecarboxamide], the values for the inhibition at 1 µM in assay [1], in assay [2] and in assay [3] were 66%, 84% and 31%, respectively.

As for `Cc1ccc2c(c1)c1c(n2CCNC(=O)c2ccncc2C)CCN(C)C1` [Compound 69, N-(2-(1,2,3,4-tetrahydro-2,8-dimethylpyrido[4,3-b]indol-5-yl)ethyl)-3-methylpyridine-4-carboxamide], the inhibition at 1 µM amounted to 30% in assay [1], 39% in assay [2] and 14% in assay [3].

Consider `Cc1ccc2c(c1)c1c(n2C2CCCCC2O)CCN(C)C1` (stereo not drawn) [Compound 73, 2-(1,2,3,4-tetrahydro-2,8-dimethylpyrido[4,3-b]indol-5-yl)cyclohexanol], for which the inhibition at 1 µM is 6% in assay [1], -2% in assay [2] and 8% in assay [3].
